Experimental data reported in patent US8394971B2, “Indole derivatives as selective androgen receptor modulators (SARMS)” (Janssen Pharmaceutica N.V., priority 2004, dated 2013).

Experiments:
[1] = target: T1, androgen receptor (adenovirus AdEasy+rAR in L929 cells) (Rattus norvegicus, UniProt P15207); assay: L929 Androgen Receptor Functional Assay, Adenovirus Transduction; format: cell-based; details: 3000 nM; for % Activity: L929 agonist testing; for % Inhibition: L929 antagonist testing with R1881
T1 construct: expressed in transfected cells
T1 sequence (P15207 1-902): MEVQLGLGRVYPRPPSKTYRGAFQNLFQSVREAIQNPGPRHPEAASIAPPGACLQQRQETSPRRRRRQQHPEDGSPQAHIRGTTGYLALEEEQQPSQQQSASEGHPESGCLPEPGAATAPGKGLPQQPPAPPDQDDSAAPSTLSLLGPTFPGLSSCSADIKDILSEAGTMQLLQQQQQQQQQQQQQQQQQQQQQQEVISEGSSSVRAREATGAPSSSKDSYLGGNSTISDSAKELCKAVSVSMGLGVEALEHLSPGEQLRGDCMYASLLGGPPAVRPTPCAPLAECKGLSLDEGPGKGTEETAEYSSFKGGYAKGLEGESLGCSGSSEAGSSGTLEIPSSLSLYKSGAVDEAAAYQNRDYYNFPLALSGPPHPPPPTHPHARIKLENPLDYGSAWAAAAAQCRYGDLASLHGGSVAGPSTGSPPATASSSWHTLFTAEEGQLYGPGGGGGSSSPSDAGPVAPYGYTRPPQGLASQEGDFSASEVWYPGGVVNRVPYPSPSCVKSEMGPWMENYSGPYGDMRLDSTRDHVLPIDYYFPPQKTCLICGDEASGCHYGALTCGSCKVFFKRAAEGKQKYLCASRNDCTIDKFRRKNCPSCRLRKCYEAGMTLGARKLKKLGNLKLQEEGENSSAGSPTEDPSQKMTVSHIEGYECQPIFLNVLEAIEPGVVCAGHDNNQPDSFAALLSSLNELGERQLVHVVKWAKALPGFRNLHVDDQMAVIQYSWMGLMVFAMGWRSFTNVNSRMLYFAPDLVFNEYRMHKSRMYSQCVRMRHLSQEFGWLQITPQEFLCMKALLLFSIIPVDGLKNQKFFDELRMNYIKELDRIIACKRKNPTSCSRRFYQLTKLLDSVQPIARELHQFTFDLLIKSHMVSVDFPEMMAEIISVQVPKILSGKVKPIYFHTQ
Procedure, shortened: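 Luminescent reporter readout after 48 h at 37 °C: rat AR delivered by adenovirus (AdEasy+rAR, moi 1:500) into L929 cells grown without phenol red in charcoal-treated serum. Antagonist wells also received R1881 (2.5× dilution at 2.5 nM).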

[2] = tested on: testosterone-enhanced ventral prostate and seminal vesicle weights in castrated male Sprague Dawley rats; assay: Ventral Prostate and Seminal Vesicle Weight In Vivo Assay; set-up: species or system rat; details: immature castrated rats; once daily for five days, usually orally at 40 mg/kg, with testosterone propionate 2 mg/kg s.c.
Procedure, shortened: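 Immature (~50 g) castrated Sprague Dawley rats dosed once daily for five days with compound (usually oral, 40 mg/kg, cyclodextrin or methylcellulose vehicle) plus testosterone propionate 2 mg/kg s.c. Wet ventral prostate and seminal vesicle weights taken on day six; activity judged by prostate weight or body-weight-adjusted % inhibition.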

SMILES	% Activity [1]	active / inactive (inhibition of testosterone-enhanced prostate weight) [2]	% Inhibition [1]
CC(O)(C[S+]([O-])Cc1ccccc1)c1cc2cc([N+](=O)[O-])c(C(F)(F)F)cc2[nH]1 (mixture of isomers) [compound 161]	2%	inactive	–
CSCCC(C)(O)c1cc2cc([N+](=O)[O-])c(C(F)(F)F)cc2[nH]1 (racemic) [compound 47]	2%	inactive	75%
COc1ccc(S(=O)(=O)CC(C)(O)c2cc3cc(Cl)c(C(F)(F)F)cc3[nH]2)cc1 (racemic) [compound 129]	−5%	inactive	−8%
COc1ccc(SCC(C)(O)c2cc3cc(Cl)c(C(F)(F)F)cc3n2S(C)(=O)=O)cc1 (racemic) [compound 130]	−5%	–	–
CC(C)CSCC(C)(O)c1cc2cc([N+](=O)[O-])c(C(F)(F)F)cc2[nH]1 (racemic) [compound 170]	2%	active	67%
